One data set relates to solid tumors. The note with it: cited from earlier work.
Another data set concerns MDA-MB-231 cells. As to the kind of experiment: IVIS total flux in MDA-MB-231 transplanted mice. It is filed as in vivo, human cells in Rag2 neonatal mice. To be noted: 0 day after completing the dosing plan; compared to vehicle control. From the text:
FIG. 5 graphically illustrates IVIS (In Vivo Imaging System) results of ADAR1-MDA-MB-231 transplanted Rag2 mouse models, and IVIS images were taken at 6 weeks after transplant (FIG. 5A), after two weeks of therapy (FIG. 5B), and one week after therapy was completed (FIG. 5C), as discussed in further detail in Example 5, below.
Ten thousand (10k) MDA-MB-231 cells were intrahepatically transplanted into Rag2 neonatal mice, then treated with fedratinib, rebecsinib, or a combination of fedratinib and rebecsinib. IVIS images were taken at 6 weeks after transplant (FIG. 5A), after two weeks of therapy (FIG. 5B), and one week after therapy was completed (FIG. 5C). The IVIS signals from the mice were graphed by groups.
The IVIS images of these mice were taken at 0 day after completing the dosing plan and are graphed by their total flux.

In data set [1] the test system is ADAR1 and MCL1 transcripts. The data set can be described thus: Comparative in vivo study with fedratinib. The arrangement: species or system human cells in mice. To be noted: twice daily oral 60 mg/kg, two weeks. As to the method:
Additional aliquots of CD34+ cells from bone marrow and/or spleens of treated and control animals were used for serial transplantation assays after Rebecsinib treatment, including engraftment studies and overall survival assays. In a separate cohort of animals, mice were treated with Fedratinib for two weeks (twice daily oral delivery at 60 mg/kg) as a positive control for modulation of ADAR1 expression and activity.^8

In another data set the test system is hematologic malignancies. The note with it: Phase 1, cited from earlier work.

Counter-ions that a name gives are not always drawn.

`CC[C@H](O)[C@@H](C)[C@H]1O[C@@H]1C[C@@](C)(O)/C=C/C=C(\C)[C@H]1OC(=O)C[C@H](O)CC[C@@](C)(O)[C@@H](OC(=O)N2CCN(C3CCCCCC3)CC2)/C=C/[C@@H]1C` [E7107]: the reversible optic neuritis in the data set on solid tumors (patients with solid tumors) is 2 of 26. Also, the stability entry with solid tumors (related to optic neuritis) was “compound instability”.

On to `Cc1cnc(Nc2ccc(OCCN3CCCC3)cc2)nc1Nc1cccc(S(=O)(=O)NC(C)(C)C)c1` [fedratinib, N-tert-butyl-3-[(5-methyl2-{[4-(2-pyrrolidin-1-ylethoxy)phenyl]amino}pyrimidin-4-yl)amino]benzenesulfonamide dihydrochloride monohydrate], for which, in the data set on MDA-MB-231 cells, the “total flux (IVIS)” value is on record as “significantly decreased”. Besides, in data set [1], the ADAR1 expression result is listed as “significantly reduced ADAR1 expression” and the MCL1 splicing result is reported as “no alteration of MCL1 splicing”.

For the compound H3B-8800, the durable remissions entry in the data set on hematologic malignancies is given as “not sufficiently potent to induce durable remissions”. For the same compound, the “red blood transfusion independence” value with hematologic malignancies (efficacy dependent on SRSF2 mutations) is on record as “red blood transfusion independence in some patients”.

The values above are taken from patent US20260364072A1, “METHODS FOR PROMOTING EXPANSION OF HUMAN CD34+ CELLS IN VIVO AND FOR PROMOTING NEURAL REGENERATION” (THE REGENTS OF THE UNIVERSITY OF CALIFORNIA, priority 2023, published 2026).
